What was measured:
[1] = system: salivation induced with pilocarpine; assay: Mouth dryness: suppression of salivation induced with pilocarpine (method of Nagao et al.); type: in vivo
Text: Examples of a selectable index of toxicity include mouth dryness, which is cited as a side effect of anticholinergic agents. Such mouth dryness can be measured by evaluating suppression of salivation induced with pilocarpine in accordance with the method of Nagao et al. (Folia Pharmacologica Japonica, Vol. 113, p156-166 (1999)). Further, elevation of blood pressure that is cited as a side effect of sibutramine can also be employed as an index of toxicity. Such elevation of blood pressure can be determined through use of a pressure transducer. Gastrointestinal dysfunction (fatty stool, defecation increase, abdominal pain, impending defecation desire) that is cited as a side effect of orlistat can also be employed as an index of toxicity. Such gastrointestinal dysfunction can be examined by analyzing the stool amount and the stool composition. Promotion of appetite that is cited as a side effect of insulin secretagogue can also be employed as an index of toxicity. Such promotion of appetite can be determined by observing body weight fluctuations using an animal, and hypoglycemia can be determined by investigating the concentration of glucose in blood. Loose passage that is cited as a side effect of α-glucosidase inhibitor can also be employed as an index of toxicity. Such loose passage and diarrhea can be investigated by, in the case of administration to animal, external observation of stool, or by analysis of stool amount and stool composition. Body weight gain that is cited as a side effect of insulin resistance improving agent can also be employed as an index of toxicity. Such body weight gain can be investigated by measurement of body weight after administration to animal. Gastrointestinal dysfunction that is cited as a side effect of HMG-CoA reductase inhibitor can also be employed as an index of toxicity. Such gastrointestinal dysfunction can be investigated by analysis of stool amount and stool composition. Gastrointestinal dysfunction that is cited as a side effect of clofibrate type drugs can also be employed as an index of toxicity. […]

[2] = system: human urinary bladder compression muscle; assay: Relaxation of carbachol-contracted human urinary bladder compression muscle; type: cell-based; details: for concentration at which the bladder compression muscle was significantly relaxed / concentration at which the muscle was not relaxed significantly: contraction provoked by carbachol (0.5×10^−6 M), each compound alone; for relaxation of bladder compression muscle, combination with propiverine: 10^−6 M propiverine plus compound (a, b, f, g 10^−9 M; c, d 10^−10 M; e, h, i 10^−8 M); for relaxation of bladder compression muscle, combination with propiverine / relaxation of bladder compression muscle, combination with oxybutynin / relaxation of bladder compression muscle, combination with tolterodine: in comparison with each compound alone; for relaxation of bladder compression muscle, combination with oxybutynin: 10^−9 M oxybutynin plus compound (a, b, f, g 10^−9 M; c 10^−10 M; e, h, i 10^−8 M); for relaxation of bladder compression muscle, combination with tolterodine: 10^−9 M tolterodine plus compound (a, b, f, g 10^−9 M; d 10^−10 M; e, h, i 10^−8 M)
[3] = system: Genetically diabetic mice; assay: Antidiabetic effect (III): genetically diabetic mice, rosiglitazone and β3 agonist; type: in vivo; details: oral, 2 weeks; ROS 1 mg/kg; compound c, d 0.3 mg/kg; e, g 3 mg/kg; h, i 1 mg/kg; alone or combined
Method: Genetically diabetic mice were orally administered with rosiglitazone (ROS: 1 mg/kg), a β3 agonist (compound c: 0.3 mg/kg; compound d: 0.3 mg/kg; compound e: 3 mg/kg; compound g: 3 mg/kg; compound h: 1 mg/kg; compound i: 1 mg/kg), or ROS and a β3 agonist (compound c, compound d, compound e, compound g, compound h, and compound i) in combination (each dosage was the same as the aforementioned) for 2 weeks. Blood was collected thereafter, and the amount of glucose contained in blood plasma was measured.

[4] = system: Mice fasted overnight, glucose loaded; assay: Antidiabetic effect (II): plasma glucose after glucose loading in fasted mice, glibenclamide and β3 agonist; type: in vivo; details: 1 hour after glucose load (1 g/kg s.c.), oral GLI 10 mg/kg, compound a 10 mg/kg, d 0.3 mg/kg, e, g 3 mg/kg, i 1 mg/kg, vs glucose loading only
Method: Mice fasted overnight were orally administered with glibenclamide (GLI: 10 mg/kg), a β3 agonist (compound a: 10 mg/kg; compound c: 0.3 mg/kg; compound d: 0.3 mg/kg; compound e: 3 mg/kg; compound g: 3 mg/kg; compound h: 1 mg/kg; compound i: 1 mg/kg), or GLI and a β3 agonist (compound a, compound c, compound d, compound e, compound g, compound h, and compound i) in combination (each dosage was the same as the aforementioned), and immediately glucose (1 g/kg, subcutaneous injection) was loaded. Blood was collected after 1 hour, and the amount of glucose contained in blood plasma was measured.
In this combined use, hypoglycemia, which is a side effect of glibenclamide, was not observed.

[5] = system: Mice induced with obesity by feeding with a high fat diet; assay: Antiobestic effect (I): body weight of high fat diet obese mice, sibutramine and β3 agonist; type: in vivo; details: oral, 2 weeks; SIB 1 mg/kg; compound c, d 0.3 mg/kg; e, g 3 mg/kg; h, i 1 mg/kg; alone or combined at same doses
Method: Mice induced with obesity by feeding with a high fat diet for 2 months were orally administered with sibutramine (SIB: 1 mg/kg), a β3 agonist (compound c: 0.3 mg/kg; compound d: 0.3 mg/kg; compound e: 3 mg/kg; compound g: 3 mg/kg; compound h: 1 mg/kg; compound i: 1 mg/kg), or SIB and a β3 agonist (compound c, compound d, compound e, compound g, compound h, and compound i) in combination (each dosage was the same as the aforementioned) for 2 weeks and bred, and body weight was measured.

[6] = system: Mice induced with obesity by feeding with a high fat diet; assay: Antiobestic effect (II): body weight of high fat diet obese mice, orlistat and β3 agonist; type: in vivo; details: oral, 2 weeks; orlistat 1 mg/kg; compound c, d 0.3 mg/kg; e, g 3 mg/kg; h, i 1 mg/kg; alone or combined at same doses
Method: Mice induced with obesity by feeding with a high fat diet for 2 months were orally administered with orlistat (1 mg/kg), a β3 agonist (compound c: 0.3 mg/kg; compound d: 0.3 mg/kg; compound e: 3 mg/kg; compound g: 3 mg/kg; compound h: 1 mg/kg; compound i: 1 mg/kg), or orlistat and a β3 agonist (compound c, compound d, compound e, compound g, compound h, and compound i) in combination (each dosage was the same as the aforementioned) for 2 weeks and bred, and body weight was measured.

Mice [7] = assay: Antidiabetic effect: plasma glucose in mice, insulin and β3 agonist; type: in vivo; details: 30 min after dosing; INS 0.2 U/kg intraperitoneal; oral compound a 10 mg/kg; c, d 0.3 mg/kg; e, g 3 mg/kg; h, i 1 mg/kg; alone or combined
Method: Mice were administered with insulin (INS: 0.2 U/kg, intraperitoneal injection), a β3 agonist (oral administration of compound a: 10 mg/kg; compound c: 0.3 mg/kg; compound d: 0.3 mg/kg; compound e: 3 mg/kg; compound g: 3 mg/kg; compound h: 1 mg/kg; compound i: 1 mg/kg, respectively), or INS and a β3 agonist (compound a, compound c, compound d, compound e, compound g, compound h, and compound i) in combination (each dosage and administration route was the same as the aforementioned), blood was collected after 30 min, and the amount of glucose contained in blood plasma was measured.

[8] = system: Genetically diabetic mice; assay: Antidiabetic effect (IV): genetically diabetic mice, acarbose and β3 agonist; type: in vivo; details: oral, 2 weeks; ACA 1 mg/kg; compound c, d 0.3 mg/kg; e, g 3 mg/kg; h, i 1 mg/kg; alone or combined
Method: Genetically diabetic mice were orally administered with acarbose (ACA: 1 mg/kg), a β3 agonist (compound c: 0.3 mg/kg; compound d: 0.3 mg/kg; compound e: 3 mg/kg; compound g: 3 mg/kg; compound h: 1 mg/kg; compound i: 1 mg/kg), or ACA and a β3 agonist (compound c, compound d, compound e, compound g, compound h, and compound i) in combination (each dosage was the same as the aforementioned) for 2 weeks. Blood was collected thereafter, and the amount of glucose contained in blood plasma was measured.

Mice [9] = assay: Antilipemic effect (II): plasma triglyceride in mice, bezafibrate and β3 agonist; type: in vivo; details: oral, 2 weeks; administered solely: BEZ 3 mg/kg; compound c, d 0.3 mg/kg; e, g 3 mg/kg; h, i 1 mg/kg
Method: Mice were orally administered with bezafibrate (BEZ: 3 mg/kg), a β3 agonist (compound c: 0.3 mg/kg; compound d: 0.3 mg/kg; compound e: 3 mg/kg; compound g: 3 mg/kg; compound h: 1 mg/kg; compound i: 1 mg/kg), or BEZ and a β3 agonist (compound c, compound d, compound e, compound g, compound h, and compound i) in combination (each dosage was the same as the aforementioned) for 2 weeks. Blood was collected thereafter, and the amount of triglyceride contained in blood plasma was measured.

[10] = in the condition of a reduced dosage

| SMILES | suppression of salivation (mouth dryness side effect) [1, 10] | concentration at which the bladder compression muscle was significantly relaxed [2] | concentration at which the muscle was not relaxed significantly [2] | blood glucose level (glucose in blood plasma) [3] | blood glucose level (glucose in blood plasma) [4] | body weight [5] | body weight [6] | relaxation of bladder compression muscle, combination with propiverine [2] | relaxation of bladder compression muscle, combination with oxybutynin [2] | relaxation of bladder compression muscle, combination with tolterodine [2] | blood glucose level (glucose in blood plasma) (Mice [7]) | blood glucose level (glucose in blood plasma) [8] | plasma triglyceride level (Mice [9]) | suppression of salivation (mouth dryness side effect) ([1]; in vivo) |
| --- | --- | --- | --- | --- | --- | --- | --- | --- | --- | --- | --- | --- | --- | --- |
| CCCOC(C(=O)OC1CCN(C)CC1)(c1ccccc1)c1ccccc1 [propiverine, reference compound] | observed | 10^−5 M | 10^−6 M | – | – | – | – | – | – | – | – | – | – | – |
| CCN(CC)CC#CCOC(=O)C(O)(c1ccccc1)C1CCCCC1 (stereo not drawn) [oxybutynin, reference compound] | observed | 10^−8 M | 10^−9 M | – | – | – | – | – | – | – | – | – | – | – |
| CS(=O)(=O)Nc1cc([C@@H](O)CNCCOc2ccc3c(c2)[nH]c2ccccc23)ccc1Cl [compound h, (R)-N-[5-[2-[2-(9H-carbazole-2-iloxy)ethylamino]-1-hydroxyethyl]-2-chlorophenyl]methanesulfonamide] | – | 10^−6 M | 10^−8 M | no difference in the blood glucose level | almost no difference in the blood glucose level | almost no change in body weight | almost no change in body weight | relaxed significantly | relaxed significantly | relaxed significantly | no change in blood glucose level | no difference | no difference | – |
| Cc1ccc(O)c([C@H](CCN(C(C)C)C(C)C)c2ccccc2)c1 [tolterodine, reference compound] | – | 10^−8 M | 10^−9 M | – | – | – | – | – | – | – | – | – | – | observed |
| CS(=O)(=O)Nc1cc([C@@H](O)CNCCOc2ccc3c(c2)[nH]c2ccccc23)ccc1O [compound d, (R)-N-[5-[2-[2-(9H-carbazole-2-iloxy)ethylamino]-1-hydroxyethyl]-2-hydroxyphenyl]methanesulfonamide] | – | 10^−8 M | 10^−10 M | no difference in the blood glucose level | almost no difference in the blood glucose level | almost no change in body weight | almost no change in body weight | relaxed significantly | relaxed significantly | relaxed significantly | no change in blood glucose level | no difference | no difference | – |
| CS(=O)(=O)Nc1cc([C@@H](O)CNCCOc2ccc3c(c2)sc2ccccc23)ccc1O [compound c, (R)-N-[5-[2-[2-(dibenzothiophene-3-iloxy)ethylamino]-1-hydroxyethyl]-2-hydroxyphenyl]methanesulfonamide] | – | 10^−8 M | 10^−10 M | no difference in the blood glucose level | almost no difference in the blood glucose level | almost no change in body weight | almost no change in body weight | relaxed significantly | relaxed significantly | relaxed significantly | no change in blood glucose level | no difference | no difference | – |
